These results are taken from US9597407B2, “Targeted antimicrobial moieties” (C3 Jian, Inc., priority 2009, dated 2017).

Entries after “also recorded” stand apart in the source; their conditions may differ.

In assay [1] the test system is microorganisms. In words: Morphology, biofilm and growth disruption by peptides (Table 5). It counts as cell-based. The arrangement: key: A: Peptide aggregates; B: Less hyphal formation; Clumps; Diffuse clumps and small polyps; F: Diffuse growth; H: Thin; I: Growth inhibition; Microcolony formation; Rippled; Small polyps; Thick; W: Halo formation on top, microlonies on bottom. An excerpt:
In certain embodiments peptides that induce alterations in phenotype or other biological activities can also be used as antimicrobial effector moieties.

The next assay deals with bacteria. Briefly: Binding of targeting peptides to microorganisms (Table 3). To be noted: peptide binding in aqueous buffers that varied depending on peptide solubility; preferably 1x PBS.
Assay [2] deals with microorganisms. In words: Peptide activities: binding, antimicrobial, growth or phenotype altering (Table 8). An excerpt:
In certain embodiments, peptides described herein can have multiple activities. Thus for example, a peptide can have both binding/targeting activity and antimicrobial activity. Such peptides can be used, e.g., in a chimeric construct, for any or all of these properties. Thus, for example, a peptide designated “B” in Table 8 can be used as a targeting peptide. If it is also designated G or M it can also be used for antimicrobial activity.

In the case of “PF-540 (KSILILIKVIFIGQTTIIL; Peptide with targeting and/or antimicrobial activity)”, the “Organism, effect (morphology, biofilm and growth disruption)” value with microorganisms [1] (E. coli) is reported as “E. coli (R)”; with microorganisms [1] (MRSA), “MRSA (H)”; with microorganisms [1] (S. epidermidis), “S. epidermidis (H)”; in the assay with microorganisms [1] (S. pneumoniae), “S. pneumoniae (R)”. Moreover, the “Target(s) (microorganisms bound by the targeting peptide)” value in the assay with bacteria was “C. albicans”. For the same substance, the Activities entry in the assay with microorganisms [2] is given as “G B”.
Take “PF-542 (KKDNPSLNDQDKNAVLNLLALAK; Peptide with targeting and/or antimicrobial activity)”: the “Organism, effect (morphology, biofilm and growth disruption)” value with microorganisms [1] (S. pneumoniae) is given as “S. pneumoniae (H)”. Also, the “Target(s) (microorganisms bound by the targeting peptide)” value with bacteria is listed as “C. jeikeium”. Moreover, the Activities result in the assay with microorganisms [2] is reported as “G B”.
Take “PF-546 (PIIAPTIKTQIQ; Peptide with targeting and/or antimicrobial activity)”: the “Organism, effect (morphology, biofilm and growth disruption)” value with microorganisms [1] (C. jeikeium) is listed as “C. jeikeium (D)”; with microorganisms [1] (E. coli), “E. coli (R)”; in the assay with microorganisms [1] (E. faecalis) it was “E. faecalis (D)”; in the assay on microorganisms [1] (MRSA), “MRSA (D)”; in the assay with microorganisms [1] (S. epidermidis) it was “S. epidermidis (D)”; in the assay on microorganisms [1] (S. pneumoniae), “S. pneumoniae (D)”. Besides, the “Target(s) (microorganisms bound by the targeting peptide)” value in the assay with bacteria is listed as “S. epidermidis; also recorded: E. coli; also recorded: C. albicans; also recorded: S. pneumoniae; also recorded: E. faecalis; also recorded: C. jeikeium”. Further, in the assay on microorganisms [2], the Activities entry was “G B”.
With “PF-549 (TGIGPIARPIEHGLDS; Peptide with targeting and/or antimicrobial activity)”, the “Organism, effect (morphology, biofilm and growth disruption)” value was “B. subtilis (D)” with microorganisms [1] (B. subtilis) and “MRSA (C)” in the assay on microorganisms [1] (MRSA). Also, in the assay on bacteria, the “Target(s) (microorganisms bound by the targeting peptide)” value is given as “E. coli; also recorded: C. albicans; also recorded: S. pneumoniae; also recorded: C. jeikeium”. In the assay on microorganisms [2], the Activities entry is “G B”.
“PF-550 (STENGWQEFESYADVGVDPRRYVPL; Peptide with targeting and/or antimicrobial activity)”: the “Organism, effect (morphology, biofilm and growth disruption)” value with microorganisms [1] (B. subtilis) is recorded as “B. subtilis (D)”. The “Target(s) (microorganisms bound by the targeting peptide)” value in the assay with bacteria is “S. pneumoniae”. The Activities entry in the assay with microorganisms [2] is “G B”.
As to “PF-551 (QVKEKRREIELQFRDAEKKLEASVQAE; Peptide with targeting and/or antimicrobial activity)”, the “Organism, effect (morphology, biofilm and growth disruption)” value in the assay on microorganisms [1] (MRSA) is “MRSA (C)”. In addition, in the assay with bacteria, the “Target(s) (microorganisms bound by the targeting peptide)” value is “S. pneumoniae”. Besides, in the assay on microorganisms [2], the Activities result is recorded as “G B”.
Take “PF-552 (ELDKADAALGPAKNLAPLDVINRS; Peptide with targeting and/or antimicrobial activity)”: the “Organism, effect (morphology, biofilm and growth disruption)” value in the assay on microorganisms [1] (B. subtilis) is on record as “B. subtilis (D)”. Further, the “Target(s) (microorganisms bound by the targeting peptide)” value in the assay with bacteria is recorded as “S. pneumoniae”. For the same substance, the Activities result in the assay with microorganisms [2] is on record as “G B”.
In the case of “PF-553 (LTIVGNALQQKNQKLLLNQKKITSLG; Peptide with targeting and/or antimicrobial activity)”, the “Organism, effect (morphology, biofilm and growth disruption)” value in the assay on microorganisms [1] (B. subtilis) is listed as “B. subtilis (D)”; in the assay with microorganisms [1] (C. jeikeium), “C. jeikeium (R)”; in the assay with microorganisms [1] (MRSA) it was “MRSA (M)”; in the assay on microorganisms [1] (S. pneumoniae) it was “S. pneumoniae (R)”. In addition, the “Target(s) (microorganisms bound by the targeting peptide)” value with bacteria is “S. epidermidis and E. coli and P. aeruginosa and C. albicans and MRSA and S. pneumoniae and C. jeikeium”. Also, in the assay on microorganisms [2], the Activities result is reported as “G B”.
Consider “PF-554 (AKNFLTRTAEEIGEQAVREGNINGP; Peptide with targeting and/or antimicrobial activity)”, for which, in the assay with microorganisms [1] (B. subtilis), the “Organism, effect (morphology, biofilm and growth disruption)” value is given as “B. subtilis (D)”. The “Target(s) (microorganisms bound by the targeting peptide)” value in the assay on bacteria is recorded as “S. pneumoniae”. The Activities entry with microorganisms [2] is “G B”.
In the same order, the values of “PF-557 (AANKAREQAAAEAKRKAEEQAR; Peptide with targeting and/or antimicrobial activity)” are “B. subtilis (D)”, “S. pneumoniae” and “G B”.
Take “PF-558 (ADAPPPLIVRYS; Peptide with targeting and/or antimicrobial activity)”: the “Organism, effect (morphology, biofilm and growth disruption)” value is recorded as “B. subtilis (D)” in the assay on microorganisms [1] (B. subtilis); “C. jejuni (H)” in the assay on microorganisms [1] (C. jejuni); “MRSA (C)” in the assay on microorganisms [1] (MRSA); “S. epidermidis (M)” with microorganisms [1] (S. epidermidis); “S. pneumoniae (R)” with microorganisms [1] (S. pneumoniae). Moreover, the “Target(s) (microorganisms bound by the targeting peptide)” value in the assay on bacteria was “S. epidermidis; also recorded: E. coli; also recorded: C. albicans; also recorded: C. jeikeium; also recorded: C. jejuni”. For the same substance, the Activities entry in the assay on microorganisms [2] is “G B”.
“PF-559 (SRPGKPGGVSIDVSRDRQDILSNYP; Peptide with targeting and/or antimicrobial activity)”: the “Organism, effect (morphology, biofilm and growth disruption)” value is listed as “B. subtilis (C)” in the assay on microorganisms [1] (B. subtilis) and “C. jejuni (A)” with microorganisms [1] (C. jejuni). For the same substance, in the assay with bacteria, the “Target(s) (microorganisms bound by the targeting peptide)” value is reported as “S. epidermidis; also recorded: M. luteus; also recorded: C. albicans; also recorded: C. jeikeium; also recorded: C. jejuni”. Besides, the Activities result with microorganisms [2] was “G B”.
Consider “PF-560 (FGNPFRGFTLAMEADFKKRK; Peptide with targeting and/or antimicrobial activity)”, for which the “Organism, effect (morphology, biofilm and growth disruption)” value in the assay with microorganisms [1] (B. subtilis) is recorded as “B. subtilis (D)”; in the assay with microorganisms [1] (C. jejuni), “C. jejuni (A)”; in the assay on microorganisms [1] (MRSA), “MRSA (C)”; with microorganisms [1] (S. pneumoniae), “S. pneumoniae (R)”. The “Target(s) (microorganisms bound by the targeting peptide)” value with bacteria is reported as “S. epidermidis; also recorded: M. luteus; also recorded: E. coli; also recorded: S. pneumoniae; also recorded: C. jeikeium; also recorded: C. jejuni”. Moreover, in the assay with microorganisms [2], the Activities result is on record as “G B”.
Turning to “PF-563 (RPELDNELDVVQNSASLDKLQASYN; Peptide with targeting and/or antimicrobial activity)”, the “Organism, effect (morphology, biofilm and growth disruption)” value in the assay with microorganisms [1] (B. subtilis) is recorded as “B. subtilis (D)”; in the assay on microorganisms [1] (C. jejuni) it was “C. jejuni (H)”; in the assay on microorganisms [1] (S. pneumoniae), “S. pneumoniae (H)”. The “Target(s) (microorganisms bound by the targeting peptide)” value in the assay with bacteria is recorded as “S. epidermidis; also recorded: M. luteus; also recorded: C. jeikeium”. Moreover, the Activities entry with microorganisms [2] is recorded as “G B”.
In the case of “PF-564 (TIILNDQINSLQERLNKLNAETDRR; Peptide with targeting and/or antimicrobial activity)”, the “Organism, effect (morphology, biofilm and growth disruption)” value with microorganisms [1] (B. subtilis) is “B. subtilis (D)”; in the assay on microorganisms [1] (C. jeikeium), “C. jeikeium (R)”; in the assay with microorganisms [1] (C. jejuni) it was “C. jejuni (R)”; in the assay with microorganisms [1] (MRSA), “MRSA (C)”. For the same substance, in the assay on bacteria, the “Target(s) (microorganisms bound by the targeting peptide)” value is reported as “S. epidermidis; also recorded: C. albicans; also recorded: S. pneumoniae; also recorded: C. jeikeium”. The Activities entry in the assay on microorganisms [2] is on record as “G B”.
